Results: patent US9556183B2, “Substituted pyrazolylpyrazole derivative and use of same as herbicide” (KYOYU AGRI CO., LTD., priority 2013, dated 2017)

Assays:
Echinochloa crus-galli = experiment: Paddy herbicidal activity test; type: in vivo; conditions: irrigated paddy pot, treated at 3.5 leaf stage of Echinochloa crus-galli, 30 days
Method in brief: (§1)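 Flooded paddy-soil pots (3 cm water) sown with weeds; rice at 2.0 leaf stage transplanted when Echinochloa reached 3.5 leaf stage, then diluted wettable powder dropped into water at prescribed rate per are. After 30 days in greenhouse (mean 30° C), growth inhibition vs untreated (efficacy) or vs complete kill (phytotoxicity) scored on 11 levels.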

Monochoria vaginalis = experiment: Paddy herbicidal activity test; type: in vivo; conditions: irrigated paddy pot, 30 days
Method in brief: as §1

Scirpus juncoides = experiment: Paddy herbicidal activity test; type: in vivo; conditions: irrigated paddy pot, 30 days
Method in brief: as §1

Rice plants = experiment: Paddy herbicidal activity test, phytotoxicity to transplanted rice; type: in vivo; conditions: rice transplanted at 2.0 leaf stage, 30 days
Method in brief: as §1

Amaranthus retroflexus [1] = experiment: Farming soil treatment test; type: in vivo; conditions: soil surface spray prior to weed growth, 30 days
Method: (§2) Evaluation of herbicidal efficacy was carried out by comparing growth inhibition rate (%) with an untreated group, while evaluation of phytotoxicity was carried out by comparing growth inhibition rate (%) with the state of a complete eradication group, and were evaluated at 11 levels indicated below. [table] Field soil was filled into a 1/6000 are pot followed by seeding with Digitaria ciliaris, Chenopodium album and Amaranthus retroflexus and covering with soil. Wettable powder of compounds of formula (I) shown in Table 1 prepared in compliance with the preparation examples were diluted with water to the prescribed amount of chemical and uniformly sprayed onto each soil surface layer using 10 liters of sprayed water per are prior to weed growth following seeding. After treating for 30 days in a glass greenhouse at an average atmospheric temperature of 30° C., the herbicidal efficacy thereof was investigated. Evaluation of herbicidal efficacy was carried out in the same manner as the above-mentioned Test Example 1.

Chenopodium album [2] = experiment: Farming soil treatment test; type: in vivo; conditions: soil surface spray prior to weed growth, 30 days
Method: as §2

Digitaria ciliaris [3] = experiment: Farming soil treatment test; type: in vivo; conditions: soil surface spray prior to weed growth, 30 days
Method: as §2

Amaranthus retroflexus [4] = experiment: Weed foliar treatment test; type: in vivo; conditions: foliar spray, 3 weeks
Method: (§3) Evaluation of herbicidal efficacy was carried out by comparing growth inhibition rate (%) with an untreated group, while evaluation of phytotoxicity was carried out by comparing growth inhibition rate (%) with the state of a complete eradication group, and were evaluated at 11 levels indicated below. [table] Soil was filled into a 1/6000 are pot followed by seeding with Digitaria ciliaris, Chenopodium album and Amaranthus retroflexus, covering with soil, and cultivating in a glass greenhouse at an average atmospheric temperature of 25° C. Wettable powder of Target Compound (I) shown in Table 1 prepared in compliance with the preparation examples were diluted with water to the prescribed amount of chemical and uniformly sprayed onto the weeds using 15 liters of sprayed water per are when Digitaria ciliaris had grown to the 1.0 to 2.0 leaf stage. After treating for 3 weeks in a glass greenhouse at an average atmospheric temperature of 25° C., the herbicidal efficacy thereof was investigated, Evaluation of herbicidal efficacy was carried out in the same manner as the above-mentioned Test Example 1.

Chenopodium album [5] = experiment: Weed foliar treatment test; type: in vivo; conditions: foliar spray, 3 weeks
Method: as §3

Digitaria ciliaris [6] = experiment: Weed foliar treatment test; type: in vivo; conditions: foliar spray at 1.0 to 2.0 leaf stage of Digitaria ciliaris, 3 weeks
Method: as §3

Structure (SMILES) | herbicidal efficacy (growth inhibition rate level) Echinochloa crus-galli (Echinochloa crus-galli; 1g a.i./10a) | herbicidal efficacy (growth inhibition rate level) Echinochloa crus-galli (Echinochloa crus-galli; 5g a.i./10a) | herbicidal efficacy (growth inhibition rate level) Monochoria vaginalis (Monochoria vaginalis; 1g a.i./10a) | herbicidal efficacy (growth inhibition rate level) Monochoria vaginalis (Monochoria vaginalis; 5g a.i./10a) | herbicidal efficacy (growth inhibition rate level) Scirpus juncoides (Scirpus juncoides; 1g a.i./10a) | herbicidal efficacy (growth inhibition rate level) Scirpus juncoides (Scirpus juncoides; 5g a.i./10a) | phytotoxicity (growth inhibition rate level) Rice plants (Rice plants; 1g a.i./10a) | phytotoxicity (growth inhibition rate level) Rice plants (Rice plants; 5g a.i./10a) | herbicidal efficacy (growth inhibition rate level) Amaranthus retroflexus (Amaranthus retroflexus [1]; 5g a.i./10a) | herbicidal efficacy (growth inhibition rate level) Amaranthus retroflexus (Amaranthus retroflexus [1]; 10g a.i./10a) | herbicidal efficacy (growth inhibition rate level) Chenopodium album (Chenopodium album [2]; 5g a.i./10a) | herbicidal efficacy (growth inhibition rate level) Chenopodium album (Chenopodium album [2]; 10g a.i./10a) | herbicidal efficacy (growth inhibition rate level) Digitaria ciliaris (Digitaria ciliaris [3]; 5g a.i./10a) | herbicidal efficacy (growth inhibition rate level) Digitaria ciliaris (Digitaria ciliaris [3]; 10g a.i./10a) | herbicidal efficacy (growth inhibition rate level) Amaranthus retroflexus (Amaranthus retroflexus [4]; 5g a.i./10a) | herbicidal efficacy (growth inhibition rate level) Amaranthus retroflexus (Amaranthus retroflexus [4]; 10g a.i./10a) | herbicidal efficacy (growth inhibition rate level) Chenopodium album (Chenopodium album [5]; 5g a.i./10a) | herbicidal efficacy (growth inhibition rate level) Chenopodium album (Chenopodium album [5]; 10g a.i./10a) | herbicidal efficacy (growth inhibition rate level) Digitaria ciliaris (Digitaria ciliaris [6]; 5g a.i./10a) | herbicidal efficacy (growth inhibition rate level) Digitaria ciliaris (Digitaria ciliaris [6]; 10g a.i./10a) | also measured
CC(Nc1c(C#N)cnn1-c1nn2c(c1Cl)CCCC2)C1CC1 (stereo not drawn) [Compound 9, 1-(3-chloro-4,5,6,7-tetrahydropyrazolo[1,5-a]pyridin-2-yl)-5-(1-cyclopropylethylamino)pyrazole-4-carbonitrile] | 9 (9: 90% to less than 100%) | 9 (9: 90% to less than 100%) | 8 (8: 80% to less than 90%) | 9 (9: 90% to less than 100%) | 8 (8: 80% to less than 90%) | 8 (8: 80% to less than 90%) | 0 (0 (exponent): 0% to less than 10% (growth inhibition rate)) | 1 (1: 10% to less than 20%) | 10 (10: 100%) | 10 (10: 100%) | 10 (10: 100%) | 10 (10: 100%) | 10 (10: 100%) | 10 (10: 100%) | 10 (10: 100%) | 10 (10: 100%) | 10 (10: 100%) | 10 (10: 100%) | 10 (10: 100%) | 10 (10: 100%) | melting point: 104 to 108 °C
N#Cc1cnn(-c2nn3c(c2Cl)CCCC3)c1NC(C1CC1)C1CC1 [Compound 10, 1-(3-chloro-4,5,6,7-tetrahydropyrazolo[1,5-a]pyridin-2-yl)-5-(dicyclopropylmethylamino)pyrazole-4-carbonitrile] | 9 (9: 90% to less than 100%) | 9 (9: 90% to less than 100%) | 8 (8: 80% to less than 90%) | 9 (9: 90% to less than 100%) | 8 (8: 80% to less than 90%) | 9 (9: 90% to less than 100%) | 0 (0 (exponent): 0% to less than 10% (growth inhibition rate)) | 1 (1: 10% to less than 20%) | 10 (10: 100%) | 10 (10: 100%) | 10 (10: 100%) | 10 (10: 100%) | 10 (10: 100%) | 10 (10: 100%) | 10 (10: 100%) | 10 (10: 100%) | 10 (10: 100%) | 10 (10: 100%) | 10 (10: 100%) | 10 (10: 100%) | melting point: 132 to 133 °C
